Here are results for eleven compounds from PubChem BioAssay (NCI).

Common to all, as to assay: growth of human tumour cells (NCI), 48 h
Assay [1] concerns A549 NSCLC.
In assay [2] the test system is HL-60(TB) leukemia.
For assay [3], the system named is K-562 leukemia.
Assay [4] concerns LXFL 529 NSCLC.
Assay [5] concerns M19-MEL melanoma.
The subject of assay [6] is SF-295 CNS.
Assay [7] concerns SK-MEL-5 melanoma.
The test system of assay [8] is SN12C renal.
The subject of assay [9] is UACC-257 melanoma.
Assay [10] deals with UACC-62 melanoma.

“And” between values parts separate entries of the source, which are not always exact repeats. Equal values may be shown once.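 How tested: cells in 96-well plates exposed to compound for 48 hours at five concentrations. At the GI50, growth is halved. TGI: concentration producing complete growth inhibition.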 Where only a bound is given, the exact number is not on record here.

As for `CC1(C)CC2CC(CC(C)(C)C2=O)C1=O`, the TGI in [1], in assay [2], in assay [3], in assay [4], in assay [5] and in assay [6] was over 100 µM in each case. For the same compound, the TGI in [7], in assay [8], in assay [9] and in assay [10] was over 100 µM in each case.

As to `COc1cc2c(cc1OC)[C@@H](Nc1ccc(F)cc1)C1COC(=O)[C@@H]1C2c1cc(OC)c(O)c(OC)c1` (some centres not stated), the TGI in assay [1] is 15 µM; in assay [2], 0.626 µM; in assay [3] it was 11.8 µM; in assay [4] it was over 100 µM; in [5], over 100 µM; in assay [6] it was 6.28 µM. Also, the TGI in assay [7] was 23.2 µM; in [8], 13.7 µM; in assay [9], over 79.6 µM; in assay [10] it was 19.9 µM.

Regarding `CCCN(CCC)C(=O)C(=O)c1c(N)[nH]n(-c2ccccc2)c1=O`, the TGI in assay [1], in assay [2], in assay [3], in assay [4], in assay [5] and in assay [6] was over 100 µM each time. Besides, the TGI in assay [7], in [8], in [9] and in assay [10] was over 100 µM each time.

For the compound `COc1ccc(COC2CC(OC)OC(C)C2OC(=O)c2ccccc2)cc1` (configuration not stated), the TGI was over 100 µM in [1]; 49.7 µM in assay [2]; over 100 µM in assay [3]; over 81.8 µM in assay [4]; over 91.1 µM in assay [5]; over 100 µM in [6]. In addition, the TGI in [7] is 31.9 µM; in [8], over 100 µM; in [9], over 100 µM; in assay [10], over 100 µM.

Consider `O=c1c(O)c(-c2ccc(O)c(O)c2)oc2cc(O)cc(O)c12`, for which the GI50 in assay [1] is 19.3 µM; in assay [2] it was 10.9 µM; in assay [3] it was 5.2 µM; in assay [6], 23.1 µM; in assay [7] it was 9.24 µM; in assay [8] it was 10.5 µM. The GI50 in assay [9] is 37.4 µM; in [10] it was 4.74 µM. Moreover, the TGI in [1] was over 100 µM; in assay [2], 65.3 µM and 47.8 µM; in assay [3] it was over 100 µM; in assay [4], over 100 µM; in assay [5] it was over 100 µM; in assay [6], over 100 µM. Besides, the TGI in assay [7] is 44 µM and > 100 µM; in assay [8], over 100 µM; in [9] it was over 100 µM; in assay [10] it was 25.5 µM and > 100 µM.

On to `C[C@]12CCC(=O)CC1CCCC2=O` (some centres not stated), for which the TGI in assay [1], in assay [2], in [3], in assay [4], in assay [5] and in assay [6] was over 100 µM throughout. The TGI in assay [7], in assay [8], in [9] and in [10] was over 100 µM in each case.

With `C[CH2][Sn]([CH2]C)([O]C(=O)c1ccccc1F)[O][Sn]([CH2]C)([CH2]C)[O]C(=O)c1ccccc1F`, the GI50 in assay [1] was over 100 µM; in assay [2] it was 43.3 µM; in assay [3], 13.5 µM; in assay [4] it was 9.79 µM; in assay [5], 28.6 µM; in assay [6], 42.1 µM. Also, the GI50 in [7] is 41.2 µM; in [8], 27 µM; in assay [9], 18.4 µM; in [10], 18.1 µM. The TGI in assay [1] was over 100 µM; in assay [2], over 75.7 µM; in assay [3], 36.6 µM; in assay [4], 22.1 µM; in [5], over 100 µM; in assay [6] it was over 57.8 µM. Further, the TGI is over 70.3 µM in assay [7], over 57.4 µM in assay [8], 35.4 µM in assay [9] and 35.1 µM in assay [10].

Turning to `CN(C)C(=O)c1ccc([N+](=O)[O-])cc1`, the TGI in assay [1], in [2], in [3], in assay [4], in assay [5] and in assay [6] was over 100 µM throughout. Moreover, the TGI in assay [7], in [8], in [9] and in [10] was over 100 µM throughout.

For the compound `CC(=O)O[C@H]1CCC2[C@@H]3CCC4c5nonc5CC[C@]4(C)C3CC[C@@]21C` (some centres not stated), the TGI was over 10 µM in assay [1]; over 100 µM in assay [2]; over 100 µM in [3]; over 10 µM in assay [4]; over 100 µM in assay [5]; over 10 µM in [6]. Further, the TGI in [7] was over 10 µM; in assay [8], over 10 µM; in [9] it was over 10 µM; in assay [10], over 100 µM. Besides, the GI50 in [2], in [3], in assay [5] and in [10] was over 100 µM each time.

For the compound `COC(=O)C(CC1=C(O)Nc2ccccc2N1)/C(=N/NC(N)=O)C(=O)Nc1ccccc1C` (configuration not stated), the TGI in [1], in assay [2], in assay [3], in [4], in assay [5] and in assay [6] was over 100 µM in each case. For the same compound, the TGI in assay [7], in assay [8], in assay [9] and in assay [10] was over 100 µM in each case.

`CCc1ccccc1NC(=O)/C(N=O)=C(/C)O`: the TGI in assay [1], in [2], in assay [3], in [4], in [5] and in [6] was over 100 µM each time. Further, the TGI in assay [7], in [8], in assay [9] and in assay [10] was over 100 µM in each case.
